We go through six compounds from PMC4340763 (Journal of immunology (Baltimore, Md. : 1950), 2015).

Peptide text beside a SMILES is read from it.

In one assay the target is soluble HLA-A*0201 molecules (Homo sapiens, UniProt P04439, D140Y/D185E/D98H/E176V/E277Q/G131W/G231S/I119V/I121R/I166T/I218V/L300P/L318F/N151K/N90K/P208A/P217A/Q86G/Q94H/R138H/R169H/T345S). Briefly: Binding affinity of synthetic peptides to soluble HLA-A*0201 molecules.
Details: not given
Usually IC50 stands for the point on the concentration scale where inhibition reaches its midpoint. High values mean weaker potency in that assay, low ones greater potency in that assay. As a reminder, the Kd is the free concentration of one partner at which half of the binding sites on the other are occupied at equilibrium, for simple one-to-one binding. Consider `CC(C)C[C@H](NC(=O)[C@@H](N)Cc1ccccc1)C(=O)N[C@H](C(=O)N[C@@H](CS)C(=O)N[C@H](C(=O)N[C@@H](CC(=O)O)C(=O)N[C@@H](CCCNC(=N)N)C(=O)N[C@@H](CO)C(=O)N[C@H](C(=O)O)C(C)C)[C@@H](C)O)[C@@H](C)O` [VP11/12_66–74] (H-FLTCTDRSV-OH), for which the IC50 came out at 83 nM and the Kd is 81 nM.
Consider `CC[C@H](C)[C@H](NC(=O)[C@@H](N)CCCNC(=N)N)C(=O)N[C@@H](CCC(N)=O)C(=O)N[C@@H](CCC(N)=O)C(=O)N[C@@H](Cc1ccc(O)cc1)C(=O)N[C@@H](CCSC)C(=O)N[C@@H](Cc1ccccc1)C(=O)N[C@@H](Cc1ccccc1)C(=O)N[C@@H](CCSC)C(=O)O` [VP11/12_197–205] (H-RIQQYMFFM-OH), for which the IC50 was determined as 81 nM and the equilibrium dissociation constant (Kd) was found to be 83 nM.
On to `CC(C)C[C@H](NC(=O)[C@H](CC(C)C)NC(=O)[C@H](CCC(=O)O)NC(=O)[C@H](CC(N)=O)NC(=O)[C@H](CC(C)C)NC(=O)[C@@H](N)CCCNC(=N)N)C(=O)N[C@@H](C)C(=O)N[C@@H](Cc1ccc(O)cc1)C(=O)N[C@H](C(=O)O)C(C)C` [VP11/12_220–228] (H-RLNELLAYV-OH), for which the IC50 stood at 709 nM and the Kd came out at 709 nM.
As for `CSCC[C@H](N)C(=O)N[C@@H](CC(C)C)C(=O)N[C@@H](Cc1c[nH]c2ccccc12)C(=O)N[C@H](C(=O)N[C@H](C(=O)N[C@@H](CC(=O)O)C(=O)N[C@@H](CCCCN)C(=O)N[C@@H](Cc1c[nH]cn1)C(=O)N[C@H](C(=O)O)C(C)C)[C@@H](C)O)[C@@H](C)O` [VP11/12_238–246] (H-MLWTTDKHV-OH), the IC50 worked out at 1290 nM.
`CC(C)C[C@H](NC(=O)[C@H](CCCCN)NC(=O)[C@@H](NC(=O)[C@H](CC(C)C)NC(=O)[C@H](CC(C)C)NC(=O)[C@H](C)NC(=O)[C@H](CO)NC(=O)[C@H](CC(C)C)NC(=O)[C@H](C)N)[C@@H](C)O)C(=O)O` [VP11/12_702–710] (H-ALSALLTKL-OH) showed an IC50 of 313 nM and a dissociation constant (Kd) of 313 nM.

Still in this assay, the particulars now being: soluble HLA-A*0201 molecules.
As for ILTQYWKYL [VP11/12_127–135], the “binding affinity to soluble HLA-A*0201 molecules (in words)” value is “did not bind”.
